Assay results as given in US20140031217A1, “HERBICIDAL COMPOSITIONS COMPRISING 4-AMINO-3-CHLORO-5-FLUORO-6-(4-CHLORO-2-FLUORO-3-METHOXYPHENYL)PYRIDINE-2-CARBOXYLIC ACID OR A DERIVATIVE THEREOF AND AUXIN TRANSPORT INHIBITORS” (DOW AGROSCIENCES LLC, priority 2012, published 2014).

Key:
ECHCO = experiment: Postemergence foliar-applied greenhouse weed control, ECHCO; type: in vivo, Echinochloa colona (L.) Link
Source text: Seeds or nutlets of the desired test plant species were planted in a soil matrix prepared by mixing a loam or sandy loam soil (e.g., 28.6 percent silt, 18.8 percent clay, and 52.6 percent sand, with a pH of about 5.8 and an organic matter content of about 1.8 percent) and calcareous grit in an 80 to 20 ratio. The soil matrix was contained in plastic pots with a volume of 1 quart and a surface area of 83.6 square centimeters (cm^2). When required to ensure good germination and healthy plants, a fungicide treatment and/or other chemical or physical treatment was applied. The plants were grown for 8-22 days in a greenhouse with an approximate 14 h photoperiod which was maintained at about 29° C. during the day and 26° C. during the night. Nutrients (Peters Excel® 15-5-15 5-Ca 2-Mg and iron chelate) were applied in the irrigation solution as needed and water was added on a regular basis. Supplemental lighting was provided with overhead metal halide 1000-Watt lamps as necessary. The plants were employed for testing when they reached the first through fourth true leaf stage.
Treatments consisted of the acid or esters of 4-amino-3-chloro-5-fluoro-6-(4-chloro-2-fluoro-3-methoxy-phenyl) pyridine-2-carboxylic acid (Compound A), each formulated as an SC (suspension concentrate), and various herbicidal components alone and in combination. Forms of compound A were applied on an acid equivalent basis.
Other herbicidal components were applied on an active ingredient basis and included auxin transport inhibiting (ATI) herbicides chlorflurenol (technical material), chlorflurenol-methyl (technical material), diflufenzopyr (technical material), diflufenzopyr sodium (technical material), flurenol-methyl (technical material) and naptalam (technical material).
Treatment requirements were calculated based upon the rates being tested, the concentration of active ingredient or acid equivalent in the formulation, and a 12 mL application volume at a rate of 187 L/ha.
For treatments comprised of formulated and technical compounds, weighed amounts of the technical materials were placed individually in 25 mL glass vials and dissolved in a volume of 97:3 v/v acetone/DMSO to obtain 12× stock solutions, and measured amounts of the formulated compounds were placed individually in 25 mL glass vials and diluted in a volume of 1.5% (v/v) crop oil concentrate or water to obtain 12× stock solutions. […] Application solutions were prepared by adding an appropriate amount of each stock solution (e.g., 1 mL) and diluted to the appropriate final concentrations with the addition of an appropriate amount of an aqueous mixture of 1.5% (v/v) crop oil concentrate so that the final spray solutions contained 1.25% (v/v) crop oil concentrate. When required, additional water and/or 97:3 v/v acetone/DMSO was added to individual application solutions so that the final acetone and DMSO concentrations of the application solutions being compared were 8.1% and 0.25%, respectively.
All stock solutions and applications solutions were visually inspected for compound compatibility prior to application. Spray solutions were applied to the plant material with an overhead Mandel track sprayer equipped with an 8002E nozzle calibrated to deliver 187 L/ha over an application area of 0.503 m^2 at a spray height of 18 to 20 inches (46 to 50 cm) above average plant canopy height. Control plants were sprayed in the same manner with the solvent blank.
The treated plants and control plants were placed in a greenhouse as described above and watered by sub-irrigation to prevent wash-off of the test compounds. After approximately 3 weeks, the condition of the test plants as compared with that of the untreated plants was determined visually and scored on a scale of 0 to 100 percent where 0 corresponds to no injury or growth inhibition and 100 corresponds to complete kill. […]

ECHCG = experiment: In-water applied (paddy) greenhouse weed control, ECHCG; type: in vivo, Echinochloa crusgalli (L.) Beauv.
Description: Weed seeds or nutlets of the desired test plant species were planted in puddled soil (mud) prepared by mixing a shredded, non-sterilized mineral soil (50.5 percent silt, 25.5 percent clay, and 24 percent sand, with a pH of about 7.6 and an organic matter content of about 2.9 percent) and water at a 1:1 volumetric ratio. The prepared mud was dispensed in 365 mL aliquots into 16-ounce (oz.) non-perforated plastic pots with a surface area of 86.59 square centimeters (cm^2) leaving a headspace of 3 centimeters (cm) in each pot. Mud was allowed to dry overnight prior to planting or transplanting. Rice seeds were planted in Sun Gro MetroMix® 306 planting mixture, which typically has a pH of 6.0 to 6.8 and an organic matter content of about 30 percent, in plastic plug trays. Seedlings at the second or third leaf stage of growth were transplanted into 840 mL of mud contained in 32-oz. non-perforated plastic pots with a surface area of 86.59 cm^2 4 days prior to herbicide application. The paddy was created by filling the headspace of the pots with 2.5 to 3 cm of water. When required to ensure good germination and healthy plants, a fungicide treatment and/or other chemical or physical treatment was applied. The plants were grown for 4-22 days in a greenhouse with an approximate 14 h photoperiod which was maintained at about 29′C during the day and 26° C. during the night. Nutrients were added as Osmocote® (19:6:12, N:P:K+minor nutrients) at 2 g per 16-oz. pot and 4 g per 960-mL 32-oz. pot. Water was added on a regular basis to maintain the paddy flood, and supplemental lighting was provided with overhead metal halide 1000-Watt lamps as necessary. The plants were employed for testing when they reached the second or third true leaf stage.
Treatments consisted of the acid or esters of 4-amino-3-chloro-5-fluoro-6-(4-chloro-2-fluoro-3-methoxy-phenyl)pyridine-2-carboxylic acid (compound A) each formulated as an SC and various herbicidal components alone and in combination. Forms of compound A were applied on an acid equivalent basis.
Other herbicidal components were applied on an active ingredient basis and included auxin transport inhibiting (ATI) herbicides chlorflurenol-methyl (technical material), chlorflurenol (technical material), diflufenzopyr (technical material), dilfufenzopyr sodium (technical material), flurenol-methyl (technical material,) and naptalam (technical material).
Treatment requirements for each compound or herbicidal component were calculated based upon the rates being tested, the concentration of active ingredient or acid equivalent in the formulation, an application volume of 2 mL per component per pot, and an application area of 86.59 cm^2 per pot.
For formulated compounds, a measured amount was placed in an individual 100 or 200 mL glass vial and was dissolved in a volume of 1.25% (v/v) Agri-Dex® crop oil concentrate to obtain application solutions.
For technical grade compounds, a weighed amount was placed in an individual 100 to 200 mL glass vial and was dissolved in a volume of acetone to obtain concentrated stock solutions. […] The concentrated stock solutions obtained were diluted with an equivalent volume of an aqueous mixture containing 2.5% (v/v) crop oil concentrate so that the final application solutions contained 1.25% (v/v) crop oil concentrate.
Applications were made by injecting with a pipetter appropriate amounts of the application solutions, individually and sequentially, into the aqueous layer of the paddy. Control plants were treated in the same manner with the solvent blank. Applications were made so that all treated plant material received the same concentrations of acetone and crop oil concentrate.
The treated plants and control plants were placed in a greenhouse as described above and water was added as needed to maintain a paddy flood. […]

Structure (SMILES)	Visual Weed Control (%) Obs (ECHCO; 20 DAA, 4.38 gae/ha) [%]	Visual Weed Control (%) Obs (ECHCO; 21 DAA, 4.38 gae/ha) [%]	Visual Weed Control (%) Obs (ECHCG; 20 DAA, 17.5 gae/ha) [%]	Visual Weed Control (%) Obs (ECHCG; 20 DAA, 35 gae/ha) [%]	Visual Weed Control (%) Obs (ECHCG; 22 DAA, 8.75 gae/ha) [%]	Visual Weed Control (%) Obs (ECHCG; 22 DAA, 17.5 gae/ha) [%]	Visual Weed Control (%) Obs (ECHCG; 22 DAA, 35 gae/ha) [%]	Visual Weed Control (%) Obs (ECHCO; 20 DAA, 8.75 gae/ha) [%]	Visual Weed Control (%) Obs (ECHCG; 19 DAA, 8 gae/ha) [%]	Visual Weed Control (%) Obs (ECHCG; 19 DAA, 16 gae/ha) [%]	Visual Weed Control (%) Obs (ECHCG; 19 DAA, 32 gae/ha) [%]	Visual Weed Control (%) Obs (ECHCG; 20 DAA, 4.38 gae/ha) [%]	Visual Weed Control (%) Obs (ECHCG; 22 DAA, 4.38 gae/ha) [%]
COc1c(Cl)ccc(-c2nc(C(=O)O)c(Cl)c(N)c2F)c1F [Compound A Acid, 4-amino-3-chloro-6-(4-chloro-2-fluoro-3-methoxyphenyl)-5-fluoropyridine-2-carboxylic acid]	40	60	50	95	0	15	15						
COc1c(Cl)ccc(-c2nc(C(=O)OCc3ccccc3)c(Cl)c(N)c2F)c1F [Compound A Benzyl Ester]	60				25	60		80	30	20	40	40	10
